Test results taken from US20140357633A1, “COMPOUNDS FOR INHIBITING THE INTERACTION OF BCL2 WITH BINDING PARTNERS” (NOVARTIS AG, priority 2011, published 2014).
Several values for one entry are separate records, joined by “and”; a condition that tells them apart may be missing. Identical values can stand only once.

What was measured:
[1] = biological target: BCL-2 (binding to BAK peptide) (Homo sapiens, UniProt P10415); assay: SPR (Biacore) solution inhibition assay, BCL-2 binding to immobilized BAK peptide; details: biotinylated BAK peptide surface, 56 nM BCL-2, 25° C.; range = high and low IC50 values from multiple experiments; read-out: BCL2_SPR IC50 BAK
BCL-2 (binding to BAK peptide), sequence (P10415 whole entry): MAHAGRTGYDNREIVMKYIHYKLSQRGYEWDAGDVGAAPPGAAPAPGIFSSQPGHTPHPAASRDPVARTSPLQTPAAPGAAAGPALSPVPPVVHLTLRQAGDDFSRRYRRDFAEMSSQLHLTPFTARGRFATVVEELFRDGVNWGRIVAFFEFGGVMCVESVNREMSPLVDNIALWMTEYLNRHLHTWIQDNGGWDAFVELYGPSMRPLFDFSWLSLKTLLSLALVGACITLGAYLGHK
From the text: (§1) The present method includes utility of a Surface plasmon resonance (SPR)-based biosensor (Biacore™′ GE Healthcare, Uppsala, Sweden) to characterize BCL-2 inhibitors.
(§2) Biacore™ utilizes the phenomenon of surface plasmon resonance (SPR) to detect and measure binding interactions. In a typical Biacore experiment, one of the interacting molecules (ligand) is immobilized on a flexible dextran matrix while the interacting partner (analyte) is allowed to flow across that surface. A binding interaction results in an increase in mass on the sensor surface and a corresponding direct change in the refractive index of the medium in the vicinity of the sensor surface. Changes in refractive index or signal are recorded in resonance units (R.U.) Signal changes due to association and dissociation of complexes are monitored in a non-invasive manner, continuously and in real-time, the results of which are reported in the form of a sensorgram.
(§3) The SPR assay is configured to examine solution inhibition of BCL-2 binding to peptide derivatized sensor surfaces to generate IC50 values as a measure of inhibitor potency.
(§4) Biacore™ A100 (GE Healthcare, Uppsala, Sweden) was used to conduct all experiments reported herein. Sensor surface preparation and all interaction analyses experiments were performed at 25° C. Reagents were purchased from GE Healthcare. Running buffer containing 10 mM Hepes, pH7.4, 150 mM sodium chloride, 1.25 mM Dithiothreitol, 3% Dimethyl sulfoxide and 0.05% polysorbate 20 were utilized throughout all analyses.
(§5) Biotinylated BAK, BAD and NOXA peptides were diluted to 10 nM in running buffer and captured onto a sensor surface pre-derivatized with streptavidin (sensor chip SA) to peptide surface densities in the range 50-100 R.U. Peptide captured surfaces were blocked with 500 μM PEO2-Biotin.
(§6) Interaction analyses were performed by first equilibrating each sample within a 6 point three fold compound dilution series in the range 16 μM to […] with 56 nM BCL-2 for one hour during instrument start-up procedures. Protein compound mixtures were then injected over each peptide surface in parallel for 60 seconds at a flow-rate of 30 μL/min. 56 nM BCL-2 control samples were also prepared and run at regular intervals during the assay. Surface regeneration was performed at the end of each analysis cycle by two 30 second injections of 10 mM Glycine, pH 2.5, 1M Sodium Chloride, 0.05% polysorbate 20. Samples and control compound samples were run in duplicate and controls are also run at regular intervals during the assay to monitor surface and assay performance.
(§7) Data analyses are carried out using Biacore™ A100 evaluation software v1.1 to validate assay quality. Binding level report points were used relative to BCL-2 control samples to calculate % inhibition values for each compound protein mixture. […] The range of data shown in table 1 represents the high and low IC50 values obtained from multiple experiments.

[2] = biological target: BCL-2 (binding to BAD peptide) (Homo sapiens, UniProt P10415); assay: SPR (Biacore) solution inhibition assay, BCL-2 binding to immobilized BAD peptide; details: biotinylated BAD peptide surface, 56 nM BCL-2, 25° C.; range = high and low IC50 values from multiple experiments; read-out: BCL2_SPR IC50 BAD
BCL-2 (binding to BAD peptide), sequence (P10415 whole entry): as above
From the text: as §1, §2, §3, §4, §5, §6, §7

IC50 [1]	IC50 [2]	Structure (SMILES)
0.246 to 0.248 µM	0.332 to 0.338 µM	CCCCN(CCCC)C(=O)c1cc(C)n(-c2ccc(NC(=O)c3cc(OC)cc([N+](=O)[O-])c3OC)cc2C(=O)N2Cc3ccccc3C[C@H]2CO)n1 [Example 132]
0.081 to 0.11 µM	0.1 to 0.129 µM	CCCCN(CCCC)C(=O)c1cc(C)n(-c2ccc(NC(=O)C(CC(=O)NC)c3ccccc3)cc2C(=O)N2Cc3ccccc3C[C@H]2CO)n1 (some centres unmarked) [Example 55]
0.161 to 0.162 µM	0.142 to 0.164 µM	CCCCN(CCCC)C(=O)c1cc(C)n(-c2ccc(NC(=O)c3cc4c(OC)c(OC)ccc4[nH]3)cc2C(=O)N2Cc3ccccc3C[C@H]2CO)n1 [Example 149]
0.0438 to 0.053 µM	0.0561 to 0.0608 µM	CCCCN(CCCC)C(=O)c1cc(C)n(-c2ccc(NC(=O)Cc3cccc(Br)c3)cc2C(=O)N2Cc3ccccc3C[C@H]2CO)n1 [Example 138]
0.0437 to 0.0545 µM	0.046 to 0.0631 µM	CCCCN(CCCC)C(=O)c1cc(C)n(-c2ccc(NC(=O)C(Cc3ccccc3)(Cc3ccccc3)C(=O)O)cc2C(=O)N2Cc3ccccc3C[C@H]2CO)n1 [Example 26]
0.268 µM	0.364 to 0.394 µM	CCCCN(CCCC)C(=O)c1cc(C)n(-c2ccc(NC(=O)c3cn4ccsc4n3)cc2C(=O)N2Cc3ccccc3C[C@H]2CO)n1 [Example 102]
1.12 to 1.18 µM	1.27 to 1.35 µM	CCCCN(CCCC)C(=O)c1cc(C)n(-c2ccc(NC(=O)c3ccccc3COc3ccccc3)cc2C(=O)N2Cc3ccccc3C[C@H]2CO)n1 [Example 92]
0.0558 to 0.0643 µM	0.0658 to 0.071 µM	CCCCN(CCCC)C(=O)c1cc(C)n(-c2ccc(NC(=O)Cc3ccc(OC)cc3)cc2C(=O)N2Cc3ccccc3C[C@H]2CO)n1 [Example 77]
0.0736 to 0.0838 µM	0.0999 to 0.103 µM	CCCCN(CCCC)C(=O)c1cc(C)n(-c2ccc(NC(=O)Cc3ccc(OC)c(C(F)(F)F)c3)cc2C(=O)N2Cc3ccccc3C[C@H]2CO)n1 [Example 78]
0.0444 to 0.0524 µM	0.0489 to 0.058 µM	CCCCN(CCCC)C(=O)c1cc(C)n(-c2ccc(NC(=O)Cc3cccc4ccccc34)cc2C(=O)N2Cc3ccccc3C[C@H]2CO)n1 [Example 3, (S)—N,N-dibutyl-1-(2-(3-(hydroxymethyl)-1,2,3,4-tetrahydroisoquinoline-2-carbonyl)-4-(2-(naphthalen-1-yl)acetamido)phenyl)-5-methyl-1H-pyrazole-3-carboxamide]
0.185 to 0.265 µM	0.192 to 0.252 µM	CCCCN(CCCC)C(=O)c1cc(C)n(-c2ccc(NC(=O)COc3ccc(C(C)C)cc3)cc2C(=O)N2Cc3ccccc3C[C@H]2CO)n1 [Example 18]
0.177 to 0.178 µM	0.27 to 0.272 µM	CCCCN(CCCC)C(=O)c1cc(C)n(-c2ccc(NC(=O)COC3CCCCC3)cc2C(=O)N2Cc3ccccc3C[C@H]2CO)n1 [Example 128]
0.107 to 0.108 µM	0.148 to 0.155 µM	CCCCN(CCCC)C(=O)c1cc(C)n(-c2ccc(NC(=O)Cc3ccc(OC)c(C)c3)cc2C(=O)N2Cc3ccccc3C[C@H]2CO)n1 [Example 95]
0.0894 to 0.0943 µM	0.114 to 0.119 µM	CCCCN(CCCC)C(=O)c1cc(C)n(-c2ccc(NC(=O)C(CCO)c3ccccc3)cc2C(=O)N2Cc3ccccc3C[C@H]2CO)n1 (some centres unmarked) [Example 105]
0.0442 to 0.0477 µM	0.0534 to 0.059 µM	CCCCN(CCCC)C(=O)c1cc(C)n(-c2ccc(NC(=O)C(CC(=O)O)Cc3ccccc3)cc2C(=O)N2Cc3ccccc3C[C@H]2CO)n1 (some centres unmarked) [Example 15]
0.127 to 0.129 µM	0.172 to 0.174 µM	CCCCN(CCCC)C(=O)c1cc(C)n(-c2ccc(NC(=O)C(C)CC(=O)O)cc2C(=O)N2Cc3ccccc3C[C@H]2CO)n1 (some centres unmarked) [Example 100]
0.0675 to 0.0714 µM	0.0821 to 0.0888 µM	CCCCN(CCCC)C(=O)c1cc(C)n(-c2ccc(NC(=O)C(CC(N)=O)c3ccccc3)cc2C(=O)N2Cc3ccccc3C[C@H]2CO)n1 (some centres unmarked) [Example 117]
1.25 to 1.27 µM and 0.964 to 1.22 µM	1.67 µM and 1.17 to 1.22 µM	CCCCN(CCCC)C(=O)c1cc(C)n(-c2ccc(NC(=O)c3cc(F)ccc3C(F)(F)F)cc2C(=O)N2Cc3ccccc3C[C@H]2CO)n1 [Example 145]
0.629 to 0.841 µM and 0.429 to 0.43 µM	1.02 to 1.12 µM and 0.691 to 0.73 µM	CCCCN(CCCC)C(=O)c1cc(C)n(-c2ccc(NC(=O)c3oc(C)nc3C)cc2C(=O)N2Cc3ccccc3C[C@H]2CO)n1 [Example 108]
